System: control human primary myoblasts
Assay: Expression microarray of primary myoblasts transduced with lentivirus carrying DUX4-fl, DUX4-s or GFP
Protocol: Primary human myoblasts were collected and cultured as previously described (Snider et al., 2010). Primary myoblasts were maintained at or below 70% confluency for proliferation. For differentiation, cells were allowed to reach 95-100% confluency in growth medium. Once confluency was reached, the cells were changed to differentiation medium (F10 media supplemented with 1% horse serum, 10 μg/mL insulin, and 10 μg/mL transferrin, penicillin/streptomycin) and maintained for 4 days. Human RD cells were grown in DMEM in 10% bovine calf serum (Hyclone) and penicillin/streptomycin. The primary myoblasts were transduced with lentivirus carrying DUX-fl, DUX4- or GFP (MOI=15).
Expression microarrays were performed on the transduced cells at 24 hours after transduction as follows. […] Samples were analyzed by Illumina Human Whole Genome microarrays. Probe intensities were corrected, normalized, and summarized by the Lumi package of Bioconductor (Du et al., 2008). Differentially expressed genes were identified by the LIMMA package of Bioconductor (Wettenhall and Smyth, 2004). Gene set enrichment analysis (GSEA) was performed using the Bioconductor GOstats package (Falcon and Gentleman, 2007).

## DUX4-fl: full-length DUX4 protein (SEQ ID NO:110), expressed from lentiviral or pCS2 vectors or in vitro translated
Refseq NM_032166.2
  fc of ATRIP (expression array): −1.006
Refseq NM_032171.1
  CEP78 expression fc: 2.035
Refseq NM_032195.1
  SON expression fc: 2.055
Refseq NM_032239.2
  LARP1B expression fc: 1.858
Refseq NM_032286.2
  MED10 expression fc: 1.965
Refseq NM_032324.1
  C1orf57 fc: −1.117
Refseq NM_032377.3
  ELOF1 expression fc: 1.884
Refseq NM_032413.2
  fc of C15orf48 (expression array): −0.8681
Refseq NM_032471.4
  PKIB expression fc: 1.858
Refseq NM_032505.1
  KBTBD8 expression fc: 3.076
Refseq NM_032508.1
  TMEM185A expression fc: 2.292
Refseq NM_032510.3
  PARD6G fc: −1.161
Refseq NM_032565.2
  fc of EBPL (expression array): −1.006
Refseq NM_032592.3
  fc of ACCS (expression array): −1.038
Refseq NM_032626.5
  RBBP6 expression fc: 1.986
Refseq NM_032681.1
  SPRYD5 expression fc: 8.045
Refseq NM_032802.3
  fc of SPPL2A (expression array): −0.7524
Refseq NM_032827.4, cultured human skeletal muscle
  ATOH8 expression fc: −2.073
Refseq NM_032854.2
  CORO6 fc: −1.12
Refseq NM_032862.2
  fc of TIGD5 (expression array): −1.003
Refseq NM_032992.2
  CASP6 expression fc: 2.035
Refseq NM_033034.1
  TRIM5 fc: −1.114
Refseq NM_033255.2, cultured human skeletal muscle
  EPSTI1 expression fc: −4.12
Refseq NM_033285.2
  TP53INP1 fc: −1.138
Refseq NM_033294.2
  CASP1 fc: −1.17
Refseq NM_033405.2, cultured human skeletal muscle
  PRIC285 expression fc: −2.608
Refseq NM_033414.2
  ZNF622 expression fc: 2.406
Refseq NM_052839.2
  PANX2 expression fc: 3.831
Refseq NM_052865.2
  fc of C20orf72 (expression array): −1.04
Refseq NM_052942.2
  fc of GBP5 (expression array): −0.9094
Refseq NM_052947.3
  fc of ALPK2 (expression array): −0.3826
Refseq NM_053034.1
  fc of ANTXR1 (expression array): −1.013
Refseq NM_057089.2
  AP1S1 fc: −1.095
Refseq NM_057182.1
  CCNE1 expression fc: 1.863
Refseq NM_058229.2
  FBXO32 fc: −1.177
Refseq NM_058241.1
  CCNT2 expression fc: 1.876
Refseq NM_080546.3
  SLC44A1 fc: −1.132
Refseq NM_080592.2
  fc of C2orf28 (expression array): −1.029
Refseq NM_080677.1
  DYNLL2 expression fc: 2.736
Refseq NM_080731.1
  HOM-TES-103 fc: −1.065
Refseq NM_080740.3
  ZNF280A expression fc: 3.798
Refseq NM_080757.1, cultured human skeletal muscle
  C20orf127 expression fc: −2.098
Refseq NM_080841.2
  fc of PTPRA (expression array): −1.02
Refseq NM_080874.2
  ASB5 fc: −1.135
Refseq NM_133172.2, cultured human skeletal muscle
  APBB3 expression fc: −1.994
Refseq NM_133375.2
  fc of DIS3L (expression array): −1.005
Refseq NM_138409.1
  C6orf117 expression fc: 2.446
Refseq NM_138432.2
  fc of SDSL (expression array): −1.011
Refseq NM_138800.1
  TRIM43 expression fc: 5.806
Refseq NM_138809.3, cultured human skeletal muscle
  CMBL expression fc: −1.992
Refseq NM_139241.1
  fc of FGD4 (expression array): −0.5592
Refseq NM_139314.1
  ANGPTL4 fc: −1.064
Refseq NM_144614.2
  MBD3L2 expression fc: 7.623
Refseq NM_144616.2
  JSRP1 fc: −1.175
Refseq NM_144641.1
  fc of PPM1M (expression array): −1.015
Refseq NM_144695.2
  fc of C1orf58 (expression array): −0.4075
Refseq NM_144779.1
  FXYD5 fc: −1.065
Refseq NM_145018.2
  Cllorf82 expression fc: 2.531
Refseq NM_145057.2
  CDC42EP5 fc: −1.137
Refseq NM_145263.2, cultured human skeletal muscle
  SPATA18 expression fc: −1.989
Refseq NM_145279.4
  MOBKL2C fc: −1.106
Refseq NM_145288.1
  ZNF296 expression fc: 5.536
Refseq NM_145792.1
  fc of MGST1 (expression array): −1.032
Refseq NM_145798.2
  OSBPL7 fc: −1.145
Refseq NM_147184.1, cultured human skeletal muscle
  TP53I3 expression fc: −1.961
Refseq NM_152219.3
  fc of GJD3 (expression array): −1.028
Refseq NM_152282.3
  ACPL2 fc: −1.079
Refseq NM_152379.2
  fc of C1orf131 (expression array): −1.023
Refseq NM_152542.2
  fc of PPM1K (expression array): −0.146
Refseq NM_152589.1
  C12orf50 expression fc: 4.522
Refseq NM_152608.3
  C1orf55 expression fc: 2.049
Refseq NM_152649.1, cultured human skeletal muscle
  MLKL expression fc: −2.992
Refseq NM_152677.1
  ZSCAN4 expression fc: 8.322
Refseq NM_152703.2, cultured human skeletal muscle
  SAMD9L expression fc: −2.532
Refseq NM_152718.2, cultured human skeletal muscle
  VWCE expression fc: −3.317
Refseq NM_152783.3
  fc of D2HGDH (expression array): −1.031
Refseq NM_152877.1
  FAS fc: −1.133
Refseq NM_153000.3, cultured human skeletal muscle
  APCDD1 expression fc: −1.894
Refseq NM_153321.1
  PMP22 fc: −1.103
Refseq NM_153449.2
  SLC2A14 expression fc: 2.374
Refseq NM_153611.3, cultured human skeletal muscle
  CYBASC3 expression fc: −1.945
Refseq NM_170699.2
  GPBAR1 expression fc: 1.936
Refseq NM_170722.1
  NLRX1 fc: −1.167
Refseq NM_172002.3
  fc of HSCB (expression array): −1.009
Refseq NM_172070.2
  fc of ZNF650 (expression array): −1.016
Refseq NM_172374.1
  fc of IL4I1 (expression array): −0.7571
Refseq NM_173484.3
  KLF17 expression fc: 1.779
Refseq NM_173587.2
  fc of RCOR2 (expression array): −1.051
Refseq NM_173674.1
  fc of DCBLD1 (expression array): −0.667
Refseq NM_173701.1, cultured human skeletal muscle
  WARS expression fc: −1.917
Refseq NM_173824.2
  fc of C3orf38 (expression array): −0.5458
Refseq NM_174916.1
  fc of UBR1 (expression array): −0.08618
Refseq NM_174921.1
  fc of C4orf34 (expression array): −1.044
Refseq NM_174938.3
  FRMD3 fc: −1.116
Refseq NM_175617.3, cultured human skeletal muscle
  MT1E expression fc: −2.067
Refseq NM_175852.3
  TXLNA fc: −1.157
Refseq NM_176870.2, cultured human skeletal muscle
  MT1M expression fc: −2.921
Refseq NM_176895.1
  PPAP2A fc: −1.106
Refseq NM_177436.1
  CSE1L expression fc: 2.937
Refseq NM_177968.2
  PPM1B expression fc: 1.831
Refseq NM_178006.1
  fc of STARD13 (expression array): −1.001
Refseq NM_178314.2
  RILPL1 fc: −1.072
Refseq NM_181054.1
  HIF1A fc: −1.15
Refseq NM_181353.1
  ID1 fc: −1.166
Refseq NM_181435.4
  C1QTNF3 expression fc: 1.974
Refseq NM_181677.1
  PPP2R2B expression fc: 4.13
Refseq NM_181876.2
  PPP2R2C fc: −1.064
Refseq NM_182557.2
  BCL9L fc: −1.111
Refseq NM_182972.2
  fc of IRF2BP2 (expression array): −1.041
Refseq NM_182985.3
  fc of TRIM69 (expression array): −1.002
Refseq NM_184086.1
  fc of TRIM55 (expression array): −1.053
Refseq NM_184234.1
  RBM39 expression fc: 1.8
Refseq NM_194281.3
  INO80C expression fc: 1.98
Refseq NM_194285.2
  SPTY2D1 expression fc: 3.286
Refseq NM_194431.1
  fc of RNASE4 (expression array): −1.06
Refseq NM_197966.1
  BID fc: −1.078
Refseq NM_198055.1
  fc of MZF1 (expression array): −1.004
Refseq NM_198150.1
  fc of ARSK (expression array): −0.8435
Refseq NM_198291.1
  fc of SRC (expression array): −1.041
Refseq NM_198450.3
  fc of APOOL (expression array): −0.5757
Refseq NM_198459.2
  DENND2C expression fc: 2.609
Refseq NM_198479.2
  TPRX1 expression fc: 4.483
Refseq NM_198576.2, cultured human skeletal muscle
  AGRN expression fc: −2.612
Refseq NM_198594.1, cultured human skeletal muscle
  C1QTNF1 expression fc: −3.846
Refseq NM_198833.1
  fc of SERPINB8 (expression array): −0.1046
Refseq NM_198925.1, cultured human skeletal muscle
  SEMA4B expression fc: −1.94
Refseq NM_199001.1, cultured human skeletal muscle
  C9orf169 expression fc: −2.509
Refseq NM_199048.1
  T1560 expression fc: 2.769
Refseq NM_199139.1, cultured human skeletal muscle
  XAF1 expression fc: −3.622
Refseq NM_199161.1, cultured human skeletal muscle
  SAA1 expression fc: −4.138
Refseq NM_199181.2
  C20orf117 fc: −1.08
Refseq NM_199203.1
  fc of TMEM189-UBE2V1 (expression array): −1.036
Refseq NM_201554.1, cultured human skeletal muscle
  DGKA expression fc: −1.955
Refseq NM_201599.1
  fc of ZMYM3 (expression array): −1.022
Refseq NM_203301.1
  FBXO33 expression fc: 3.22
Refseq NM_203446.1
  SYNJ1 expression fc: 2.433
Refseq NM_207315.2
  fc of CMPK2 (expression array): −0.8826
Refseq NM_207352.2
  CYP4V2 fc: −1.159
Refseq NM_207380.1
  fc of C15orf52 (expression array): −1.016
Refseq NM_207465.1
  FLJ45337 expression fc: 3.685
Refseq NM_001001323.1
  ATP2B1 fc: −1.082
Refseq NM_001001692.1
  FLJ45139 expression fc: 2.451
Refseq NM_001001821.1
  OR2T34 expression fc: 4.519
Refseq NM_001001995.1
  fc of GPM6B (expression array): −0.3998
Refseq NM_001002006.1
  NT5C1B expression fc: 3.495
Refseq NM_001002010.1
  fc of NT5C3 (expression array): −0.6592
Refseq NM_001002814.1
  RAB11FIP1 expression fc: 1.987
Refseq NM_001003679.1
  fc of LEPR (expression array): −1
Refseq NM_001004328.1
  ZNF705A expression fc: 6.832
Refseq NM_001005464.2
  HIST2H3A expression fc: 4.945
Refseq NM_001005742.1
  GBA fc: −1.065
Refseq NM_001006610.1
  SIAH1 expression fc: 3.699
Refseq NM_001008213.1
  OPTN fc: −1.113
Refseq NM_001008539.2, cultured human skeletal muscle
  SLC7A2 expression fc: −2.482
Refseq NM_001008540.1
  CXCR4 expression fc: 2.004
Refseq NM_001009566.1
  fc of CLSTN1 (expression array): −1.009
Refseq NM_001009611.1
  PRAMEF4 expression fc: 7.06
Refseq NM_001010876.1
  C6orf191 expression fc: 2.091
Refseq NM_001010889.2
  PRAMEF6 expression fc: 5.826
Refseq NM_001010890.1
  PRAMEF9 expression fc: 7.131
Refseq NM_001012276.1
  PRAMEF8 expression fc: 3.701
Refseq NM_001012277.1
  PRAMEF7 expression fc: 7.631

Reference: patent US20140242093A1, “METHODS AND COMPOSITIONS FOR MODULATING THE INNATE IMMUNE RESPONSE AND/OR MYOGENESIS IN A MAMMALIAN SUBJECT” (FRED HUTCHINSON CANCER RESEARCH CENTER, priority 2011, published 2014)
